Reference: ChEMBL document CHEMBL5050844 (2019)

Assays:
[1] = Induction of anti-CD3/CD28 antibodies-stimulated human T cell activation at 4 uM assessed fold increase in IL-2 secretion measured by ELISA assay; assay type: functional, T cell line
[2] = Induction of anti-CD3/CD28 antibodies-stimulated human T cell activation at 0.3 uM assessed fold increase in IL-2 secretion measured by ELISA assay; assay type: functional, T cell line
[3] = Induction of anti-CD3 antibodies-stimulated human T cell activation at 8 uM assessed fold increase in IL-2 secretion measured by ELISA assay; assay type: functional, T cell line
[4] = Induction of anti-CD3 antibodies-stimulated human T cell activation at 1 uM assessed fold increase in IL-2 secretion measured by ELISA assay; assay type: functional, T cell line
[5] = Induction of anti-CD3/CD28 antibodies-stimulated human T cell activation at 4 uM assessed fold increase in CD25 expression measured by ELISA assay; assay type: functional, T cell line
[6] = Induction of anti-CD3/CD28 antibodies-stimulated human T cell activation at 1 uM assessed fold increase in CD25 expression measured by ELISA assay; assay type: functional, T cell line
[7] = Induction of anti-CD3/CD28 antibodies-stimulated human T cell activation at 0.3 uM assessed fold increase in CD25 expression measured by ELISA assay; assay type: functional, T cell line
[8] = Induction of anti-CD3 antibodies-stimulated human T cell activation at 8 uM assessed fold increase in CD25 expression measured by ELISA assay; assay type: functional, T cell line
[9] = Induction of anti-CD3 antibodies-stimulated human T cell activation at 1 uM assessed fold increase in CD25 expression measured by ELISA assay; assay type: functional, T cell line
[10] = Induction of anti-CD3/CD28 antibodies-stimulated human CD4+ T cell activation at 10 uM assessed fold increase in CD69 expression measured by flow cytometry analysis; assay type: functional, T cell line
[11] = Induction of anti-CD3/CD28 antibodies-stimulated human CD4+ T cell activation at 10 uM assessed fold increase in cell proliferation measured by flow cytometry analysis; assay type: functional, T cell line
[12] = Induction of anti-CD3/CD28 antibodies-stimulated human CD4+ T cell activation at 1.11 uM assessed fold increase in cell proliferation measured by flow cytometry analysis; assay type: functional, T cell line
[13] = Induction of anti-CD3/CD28 antibodies-stimulated human CD8+ T cell activation at 1.11 uM assessed fold increase in CD69 expression measured by flow cytometry analysis; assay type: functional, T cell line
[14] = Induction of anti-CD3/CD28 antibodies-stimulated human CD8+ T cell activation at 10 uM assessed fold increase in cell proliferation measured by flow cytometry analysis; assay type: functional, T cell line
[15] = Induction of anti-CD3/CD28 antibodies-stimulated human CD8+ T cell activation at 1.11 uM assessed fold increase in cell proliferation measured by flow cytometry analysis; assay type: functional, T cell line
[16] = Induction of anti-CD3 antibodies-stimulated human CD4+ T cell activation at 10 uM assessed fold increase in CD69 expression measured by flow cytometry analysis; assay type: functional, T cell line
[17] = Induction of anti-CD3 antibodies-stimulated human CD4+ T cell activation at 1.11 uM assessed fold increase in CD69 expression measured by flow cytometry analysis; assay type: functional, T cell line
[18] = Induction of anti-CD3 antibodies-stimulated human CD8+ T cell activation at 10 uM assessed fold increase in CD69 expression measured by flow cytometry analysis; assay type: functional, T cell line
[19] = Induction of anti-CD3 antibodies-stimulated human CD8+ T cell activation at 1.11 uM assessed fold increase in CD69 expression measured by flow cytometry analysis; assay type: functional, T cell line
[20] = Induction of anti-CD3/CD28 antibodies-stimulated human T cell activation at 10 uM assessed fold increase in GM-CSF secretion measured by ELISA assay; assay type: functional, T cell line
[21] = Induction of anti-CD3 antibodies-stimulated human T cell activation at 10 uM assessed fold increase in GM-CSF secretion measured by ELISA assay; assay type: functional, T cell line
[22] = Induction of anti-CD3 antibodies-stimulated human T cell activation at 1.11 uM assessed fold increase in GM-CSF secretion measured by ELISA assay; assay type: functional, T cell line
[23] = Induction of anti-CD3/CD28 antibodies-stimulated human T cell activation at 10 uM assessed fold increase in IFN-gamma secretion measured by ELISA assay; assay type: functional, T cell line
[24] = Induction of anti-CD3/CD28 antibodies-stimulated human T cell activation at 1.11 uM assessed fold increase in IFN-gamma secretion measured by ELISA assay; assay type: functional, T cell line
[25] = Induction of anti-CD3 antibodies-stimulated human T cell activation at 10 uM assessed fold increase in IFN-gamma secretion measured by ELISA assay; assay type: functional, T cell line
[26] = Induction of anti-CD3 antibodies-stimulated human T cell activation at 1.11 uM assessed fold increase in IFN-gamma secretion measured by ELISA assay; assay type: functional, T cell line
[27] = Induction of allogenic human T cell activation at 10 uM assessed fold increase in cell proliferation; assay type: functional, T cell line
[28] = Induction of allogenic human T cell activation at 3 uM assessed fold increase in cell proliferation; assay type: functional, T cell line
[29] = Induction of anti-CD3 antibodies-stimulated human exhausted T cell activation assessed fold increase in IFN-gamma secretion measured by ELISA assay; assay type: functional, T cell line
[30] = Induction of anti-CD3 antibodies-stimulated human exhausted T cell activation assessed fold increase in IL-2 secretion measured by ELISA assay; assay type: functional, T cell line
[31] = Induction of anti-CD3 antibodies-stimulated human exhausted T cell activation assessed fold increase in GM-CSF secretion measured by ELISA assay; assay type: functional, T cell line
[32] = Induction of anti-CD3 antibodies-stimulated human exhausted CD4+ T cell activation assessed fold increase in CTLA4 expression measured by flow cytometry analysis; assay type: functional, T cell line
[33] = Induction of anti-CD3/CD28 antibodies-stimulated human anergic T cell activation at 10 uM assessed fold increase in IFN-gamma secretion measured by ELISA assay; assay type: functional, T cell line
[34] = Induction of anti-CD3/CD28 antibodies-stimulated human anergic T cell activation at 1.11 uM assessed fold increase in IFN-gamma secretion measured by ELISA assay; assay type: functional, T cell line
B cell = test: Induction of anti-IgM-stimulated human CD20+ B cell activation at 10 to 1000 uM assessed as increase in CD69 expression measured as mean fluorescence intensity AUC by flow cytometry analysis; assay type: functional, cell-based; conditions: dose 10-1000 µM
[35] = Induction of activation of human CD56+ CD3- NK cells co-cultured with human K562 cells in 1:1 ratio and assessed as increase in IFN-gamma secretion at 10 uM measured by ELISA assay; assay type: functional, Natural killer cell
[36] = Induction of activation of human CD56+ CD3- NK cells co-cultured with human K562 cells in 1:1 ratio and assessed as increase in IFN-gamma secretion at 0.625 uM measured by ELISA assay; assay type: functional, Natural killer cell
[37] = Induction of activation of human CD56+ CD3- NK cells co-cultured with human K562 cells in 1:1 ratio and assessed as increase in TNF-alpha secretion at 2.5 uM measured by ELISA assay; assay type: functional, Natural killer cell
[38] = Induction of activation of human CD56+ CD3- NK cells co-cultured with human K562 cells in 1:1 ratio and assessed as increase in TNF-alpha secretion at 0.625 uM measured by ELISA assay; assay type: functional, Natural killer cell

In the case of `C[C@H](Cc1nncn1C)c1cccc(N2Cc3c(cc(CN4CC(C)(O)C4)cc3C(F)(F)F)C2=O)c1`, the “fold change (FC)” value [1] is reported as “>=7.5”, the “fold change (FC)” value [2] is reported as 2.51 and the “fold change (FC)” value [3] is reported as “>=0.201”. The “fold change (FC)” value [4] was 0.151, the “fold change (FC)” value [5] was 1.31 and the “fold change (FC)” value [6] was 1.31. The “fold change (FC)” value [7] was 1.01, the “fold change (FC)” value [8] was “>=1.001” and the “fold change (FC)” value [9] was “>=1.001”. The “fold change (FC)” value [10] was 1.401, the “fold change (FC)” value [11] was >4 and the “fold change (FC)” value [12] was >4. The “fold change (FC)” value [13] was 1.201, the “fold change (FC)” value [14] was >4 and the “fold change (FC)” value [15] was 3.01. For the same compound, the “fold change (FC)” value [16] was >1.601, the “fold change (FC)” value [17] was >1.601 and the “fold change (FC)” value [18] was 1.401. For the same compound, the “fold change (FC)” value [19] was 1.201, the “fold change (FC)” value [20] was >4 and the “fold change (FC)” value [21] was 2.01. For the same compound, the “fold change (FC)” value [22] was 2.01, the “fold change (FC)” value [23] was >4 and the “fold change (FC)” value [24] was 2.01. The “fold change (FC)” value [25] was “<=2”, the “fold change (FC)” value [26] was “<=2” and the “fold change (FC)” value [27] was 2.01. The “fold change (FC)” value [28] was “<=2”, the “fold change (FC)” value [29] was >1.61 and the “fold change (FC)” value [30] was 2.51. The “fold change (FC)” value [31] was 1.41, the “fold change (FC)” value [32] was >1.61 and the “fold change (FC)” value [33] was >4.01. The “fold change (FC)” value [34] was >4.01, the AUC (B cell) was 0.5 and the “fold change (FC)” value [35] was “>=5”. The “fold change (FC)” value [36] was 2.01, the “fold change (FC)” value [37] was 2.01 and the “fold change (FC)” value [38] was 1.01.
In the case of `C[C@H](c1cc2c(c(C(F)(F)F)c1)CN(c1cccc(C3(Cc4nncn4C)COC3)c1)C2=O)N1CC[C@H](F)C1`, the “fold change (FC)” value [1] is reported as “>=7.5”, the “fold change (FC)” value [2] is reported as 5 and the “fold change (FC)” value [3] is reported as “>=0.201”. For the same compound, the “fold change (FC)” value [4] was “>=0.201”, the “fold change (FC)” value [5] was 1.31 and the “fold change (FC)” value [6] was 1.51. The “fold change (FC)” value [7] was 1.31, the “fold change (FC)” value [8] was “>=1.001” and the “fold change (FC)” value [9] was “>=1.001”. The “fold change (FC)” value [10] was >1.601, the “fold change (FC)” value [11] was >4 and the “fold change (FC)” value [12] was >4. For the same compound, the “fold change (FC)” value [13] was 1.201, the “fold change (FC)” value [14] was >4 and the “fold change (FC)” value [15] was 3.01. For the same compound, the “fold change (FC)” value [16] was >1.601, the “fold change (FC)” value [17] was 1.401 and the “fold change (FC)” value [18] was 1.401. The “fold change (FC)” value [19] was 1.201, the “fold change (FC)” value [20] was >4 and the “fold change (FC)” value [21] was 2.01. The “fold change (FC)” value [22] was 1.51, the “fold change (FC)” value [23] was 3.01 and the “fold change (FC)” value [24] was “<=2”. For the same compound, the “fold change (FC)” value [25] was >4, the “fold change (FC)” value [26] was 2.01 and the “fold change (FC)” value [27] was >3. For the same compound, the “fold change (FC)” value [28] was 2.01, the “fold change (FC)” value [29] was >1.61 and the “fold change (FC)” value [30] was >3.01. For the same compound, the “fold change (FC)” value [31] was >1.61, the “fold change (FC)” value [32] was >1.61 and the “fold change (FC)” value [33] was >4.01. For the same compound, the “fold change (FC)” value [34] was >4.01, the AUC (B cell) was 1.01 and the “fold change (FC)” value [35] was “>=5”. For the same compound, the “fold change (FC)” value [36] was 2.01, the “fold change (FC)” value [37] was 2.01 and the “fold change (FC)” value [38] was 2.01.
